Experiment [1] has as its target T1, Porcine pancreatic phospholipase A2 (Sus scrofa, UniProt P00592).
T1 construct: purchased Boehringer Mannheim·Yamanouchi K.K. 161454·122416
Description: Phospholipase A2 inhibitory activity, method B (L-α-dipalmitoylphosphatidylcholine substrate). Type of experiment: biochemical. Conditions: 37°C for 30 minutes; for inhibition at 1000 ppm: 1,000 ppm, read-out: % inhibition of PLA2 (1,000 ppm). The procedure, abridged: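 Substrate: L-α-dipalmitoylphosphatidylcholine/sodium cholate mixed micelles in 250 mM NaCl, 100 mM Tris-HCl pH 8.0. Enzyme (10 µg/ml stock) incubated with compound in buffer containing CaCl2 and BSA, 30 min at 37 °C. Released free fatty acid measured by ACS-ACOD at 540 nm; % inhibition derived from apparent enzyme concentration read off a standard curve.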

The test system of experiment [2] is carrageenin edema. Description: Inhibitory activity on carrageenin edema. Type of experiment: in vivo, Wistar male rats. Conditions: rat, paw swelling volume three hours after carrageenin; for Inhibition rate (%): dose 50 mg/kg orally; for inhibition in vivo at 100 mg/kg: po, 3 h, dose 100 mg/kg orally, read-out: Inhibition rate (%). The procedure, abridged: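 Male Wistar rats (about 100 g, 5 per group) dosed orally at 200, 100, 50 or 25 mg/kg as 2% Tween 80 suspension or aqueous salt solution, 1 h before subplantar injection of 0.1 ml 1% λ-carrageenin. Paw swelling measured at 3 h; % inhibition versus control group mean swelling.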
In general terms: Carrageenan injected into the paw causes an acute inflammation.

Experiment [3] concerns increased vascular permeability induced by acetic acid. Description: Inhibitory activity on increased vascular permeability induced by acetic acid (Mouse Whittle method, method C). Type of experiment: in vivo, ddy male mice. To be noted: amount of leaked dye. How it is done:
Using ddy male mice, each test group consisted of 4 or 5 mice. A test compound was mixed with Tween 80 [polyoxyethylenesorbitan monooleate (manufactured by Nacalai Tesque K.K.)], and distilled water was added thereto to obtain a 2% Tween 80 suspension, or it was dissolved in the form of a salt in water to obtain an aqueous solution. A test compound was orally administered, and upon expiration of one hour from the administration, 0.7% acetic acid was intraperitonially injected to each mouse in an amount of 0.1 ml/10 g, and at the same time, 2% brilliant blue was intravenously injected into the tail vein in an amount of 0.1 ml/20 g. Thirty minutes after the injection of brilliant blue, the cervical vertebrae were dislocated under anesthesia by chloroform, and the abdorminal cavity was washed with 5 ml of a physiological saline. The washing solution was subjected to centrifugal separation at 3,000 rpm for 10 minutes, and the amount of the dye in the supernatant was measured at 600 nm absorbance by Microplate ELISA Reader (Model 2550EIA Reader, manufactured by Bio-Rad Laboratories). The inhibition rate of the amount of leaked dye in the group in which a test compound was administered relative to the control group was obtained by the following formula. Inhibition rate (%) = (l -(C)/(D)) x 100 [formula] • C: Amount of leaked dye in the group to which a test compound was administered. • D: Amount of leaked dye in the control group.

Structures can show the parent of a compound that is named as a salt.

T1 sequence (P00592 23-146): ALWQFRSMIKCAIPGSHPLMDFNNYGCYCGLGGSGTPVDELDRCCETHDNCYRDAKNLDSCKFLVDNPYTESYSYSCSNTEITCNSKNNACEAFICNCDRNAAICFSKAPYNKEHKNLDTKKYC

For orientation: inhibition means the share of the control response that was lost under treatment. With `CS(=O)(=O)Nc1ncc(C(F)(F)F)cc1NC(=O)c1ccccc1` [compound 43], the inhibition at 1000 ppm in experiment [1] came to 49%. Moreover, the “Inhibition rate (%)” value in experiment [2] was 31%; in experiment [3] (dose 20 mg/kg orally), 48%.

Regarding `CS(=O)(=O)Nc1ncc(C(F)(F)F)cc1NC(=O)C(F)(F)C(F)(F)F` [compound 13], in experiment [1], the inhibition at 1000 ppm turned out to be 51%. Besides, the inhibition in vivo at 100 mg/kg in experiment [2] amounted to 21%. Also, the “Inhibition rate (%)” value in experiment [3] (dose 100 mg/kg orally) is on record as 57%.

On to `CS(=O)(=O)Nc1ncc(C(F)(F)F)cc1NC(=O)c1ccc(F)cc1` [Compound No. 10, N-(2-methylsulfonylamino-5-trifluoromethyl-3-pyridyl)-4-fluorobenzamide], for which, in experiment [1], the inhibition at 1000 ppm stood at 51%. Also, in experiment [2], the inhibition in vivo at 100 mg/kg was 28%. Further, the “Inhibition rate (%)” value in experiment [3] (dose 10 mg/kg orally) is given as 42%.

As for `CS(=O)(=O)Nc1ncc(C(F)(F)F)cc1NC(=O)c1cc2ccccc2s1` [compound 86], the inhibition at 1000 ppm in experiment [1] stood at 93%. For the same compound, the “Inhibition rate (%)” value in experiment [2] is reported as 27%; in experiment [3] (dose 20 mg/kg orally), 42%.

For the compound `CCS(=O)(=O)Nc1ncc(C(F)(F)F)cc1NC(=O)C1CCCCC1` [Compound No. 47, N-(2-ethylsulfonylamino-5-trifluoromethyl-3-pyridyl)cyclohexanecarboxamide], the inhibition at 1000 ppm in experiment [1] was 90%. Also, the “Inhibition rate (%)” value amounted to 41% in experiment [2] (50 mg/kg) and 46% in experiment [3] (dose 10 mg/kg orally).

Take `CS(=O)(=O)Nc1ncc(C(F)(F)F)cc1NC(=O)C1CCCC1` [compound 45]: in experiment [1], the inhibition at 1000 ppm came to 41%. Also, the results for the “Inhibition rate (%)” value in experiment [2] and in experiment [3] (dose 20 mg/kg orally) were 23% and 29%, respectively.

For the compound `CCS(=O)(=O)Nc1ncc(C(F)(F)F)cc1NC(=O)C1CCCC1` [compound 94], the inhibition at 1000 ppm in experiment [1] turned out to be 63%. Besides, the “Inhibition rate (%)” value stood at 23% in experiment [2] and 53% in experiment [3] (dose 20 mg/kg orally).

Consider `CCS(=O)(=O)Nc1ncc(C(F)(F)F)cc1NC(=O)C1CCCCC1` [Compound No. 251, sodium salt of N-(2-ethylsulfonylamino-5-trifluoromethyl-3-pyridyl)cyclohexanecarboxamide], for which the “% inhibition of PLA2 (1,000 ppm)” value in experiment [1] is reported as 85%. Moreover, the “Inhibition rate (%)” value in experiment [2] (50 mg/kg) turned out to be 30%; in experiment [3] (dose 20 mg/kg orally, 20 mg/kg) it was 43%.

As for `CS(=O)(=O)Nc1ncc(C(F)(F)F)cc1NC(=O)c1ccc2c(c1)CCC2` [compound 87], in experiment [1], the inhibition at 1000 ppm came out at 88%. In addition, the “Inhibition rate (%)” value in experiment [2] amounted to 21%; in experiment [3] (dose 10 mg/kg orally) it was 28%.

For the compound `CS(=O)(=O)Nc1ncc(C(F)(F)F)cc1NC(=O)c1cccc(Cl)c1` [compound 79], the inhibition at 1000 ppm in experiment [1] was 65%. Also, the results for the “Inhibition rate (%)” value in experiment [2] and in experiment [3] (dose 20 mg/kg orally) were 20% and 67%, respectively.

Turning to `C/C=C/C(=O)Nc1cc(C(F)(F)F)cnc1NS(=O)(=O)CC` [compound 93, N-(2-ethylsulfonylamino-5-trifluoromethyl-3-pyridyl)crotonamide], the inhibition at 1000 ppm in experiment [1] is 48%. Further, the “Inhibition rate (%)” value in experiment [2] was determined as 22%; in experiment [3] (dose 10 mg/kg orally), 40%.

In the case of `Cc1cccc(C(=O)Nc2cc(C(F)(F)F)cnc2NS(C)(=O)=O)c1` [compound 78], in experiment [1], the inhibition at 1000 ppm turned out to be 51%. For the same compound, the “Inhibition rate (%)” value in experiment [2] was 26%; in experiment [3] (dose 10 mg/kg orally), 32%.

(Values after patent EP0465913B1, “Diaminotrifluoromethylpyrimidine derivatives, process for their production and phospholipase A2 inhibitor containing them” (ISHIHARA SANGYO KAISHA, LTD., priority 1990, dated 1992).)
